Data: ChEMBL document CHEMBL3991601, “The target landscape of clinical kinase drugs” (Science, 2017)
Counter-ions that a name gives are not always drawn. Activity calls are given as the source filed them. Rule as the data show it, for most assays here: actives have a measured Kd and inactives only a lower limit.

How the values were obtained:
[1] = target: Atypical kinase COQ8A, mitochondrial (Homo sapiens, UniProt Q8NI60)
[2] = target: Tyrosine-protein kinase ABL2 (Homo sapiens, UniProt P42684)
Tyrosine-protein kinase ABL2, sequence (P42684 whole entry): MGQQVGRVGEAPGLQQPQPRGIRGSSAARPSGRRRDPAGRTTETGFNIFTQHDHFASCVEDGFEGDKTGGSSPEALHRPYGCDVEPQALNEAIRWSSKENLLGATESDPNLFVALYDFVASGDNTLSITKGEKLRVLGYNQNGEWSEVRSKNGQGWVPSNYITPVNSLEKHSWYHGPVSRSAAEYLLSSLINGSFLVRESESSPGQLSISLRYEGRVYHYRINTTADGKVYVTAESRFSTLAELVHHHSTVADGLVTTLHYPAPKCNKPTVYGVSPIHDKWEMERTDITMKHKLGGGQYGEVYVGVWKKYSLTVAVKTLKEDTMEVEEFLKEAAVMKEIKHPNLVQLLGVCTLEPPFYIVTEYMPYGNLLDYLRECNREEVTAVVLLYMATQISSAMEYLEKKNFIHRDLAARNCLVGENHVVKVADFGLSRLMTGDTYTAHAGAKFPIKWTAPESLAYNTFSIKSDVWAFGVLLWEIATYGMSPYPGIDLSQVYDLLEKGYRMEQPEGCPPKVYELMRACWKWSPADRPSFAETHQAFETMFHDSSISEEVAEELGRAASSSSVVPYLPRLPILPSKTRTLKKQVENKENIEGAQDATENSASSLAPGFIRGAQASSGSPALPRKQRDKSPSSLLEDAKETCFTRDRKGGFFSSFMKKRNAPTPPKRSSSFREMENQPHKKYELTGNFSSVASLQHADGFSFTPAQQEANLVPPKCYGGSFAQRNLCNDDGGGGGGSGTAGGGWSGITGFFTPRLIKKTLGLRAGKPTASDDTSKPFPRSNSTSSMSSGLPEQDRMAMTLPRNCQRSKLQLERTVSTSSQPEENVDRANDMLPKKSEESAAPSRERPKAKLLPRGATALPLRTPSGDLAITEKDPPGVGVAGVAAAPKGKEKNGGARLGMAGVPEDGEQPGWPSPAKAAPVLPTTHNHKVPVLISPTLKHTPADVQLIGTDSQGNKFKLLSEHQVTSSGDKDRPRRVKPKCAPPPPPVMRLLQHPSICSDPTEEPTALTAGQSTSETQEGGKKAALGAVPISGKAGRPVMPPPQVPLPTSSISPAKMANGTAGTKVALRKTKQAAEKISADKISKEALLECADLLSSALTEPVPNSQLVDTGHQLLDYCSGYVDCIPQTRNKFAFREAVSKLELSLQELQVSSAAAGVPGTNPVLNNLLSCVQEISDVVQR

[3] = target: T1, Mitogen-activated protein kinase kinase kinase 5 (Homo sapiens, UniProt Q99683)
T1 sequence (Q99683 whole entry): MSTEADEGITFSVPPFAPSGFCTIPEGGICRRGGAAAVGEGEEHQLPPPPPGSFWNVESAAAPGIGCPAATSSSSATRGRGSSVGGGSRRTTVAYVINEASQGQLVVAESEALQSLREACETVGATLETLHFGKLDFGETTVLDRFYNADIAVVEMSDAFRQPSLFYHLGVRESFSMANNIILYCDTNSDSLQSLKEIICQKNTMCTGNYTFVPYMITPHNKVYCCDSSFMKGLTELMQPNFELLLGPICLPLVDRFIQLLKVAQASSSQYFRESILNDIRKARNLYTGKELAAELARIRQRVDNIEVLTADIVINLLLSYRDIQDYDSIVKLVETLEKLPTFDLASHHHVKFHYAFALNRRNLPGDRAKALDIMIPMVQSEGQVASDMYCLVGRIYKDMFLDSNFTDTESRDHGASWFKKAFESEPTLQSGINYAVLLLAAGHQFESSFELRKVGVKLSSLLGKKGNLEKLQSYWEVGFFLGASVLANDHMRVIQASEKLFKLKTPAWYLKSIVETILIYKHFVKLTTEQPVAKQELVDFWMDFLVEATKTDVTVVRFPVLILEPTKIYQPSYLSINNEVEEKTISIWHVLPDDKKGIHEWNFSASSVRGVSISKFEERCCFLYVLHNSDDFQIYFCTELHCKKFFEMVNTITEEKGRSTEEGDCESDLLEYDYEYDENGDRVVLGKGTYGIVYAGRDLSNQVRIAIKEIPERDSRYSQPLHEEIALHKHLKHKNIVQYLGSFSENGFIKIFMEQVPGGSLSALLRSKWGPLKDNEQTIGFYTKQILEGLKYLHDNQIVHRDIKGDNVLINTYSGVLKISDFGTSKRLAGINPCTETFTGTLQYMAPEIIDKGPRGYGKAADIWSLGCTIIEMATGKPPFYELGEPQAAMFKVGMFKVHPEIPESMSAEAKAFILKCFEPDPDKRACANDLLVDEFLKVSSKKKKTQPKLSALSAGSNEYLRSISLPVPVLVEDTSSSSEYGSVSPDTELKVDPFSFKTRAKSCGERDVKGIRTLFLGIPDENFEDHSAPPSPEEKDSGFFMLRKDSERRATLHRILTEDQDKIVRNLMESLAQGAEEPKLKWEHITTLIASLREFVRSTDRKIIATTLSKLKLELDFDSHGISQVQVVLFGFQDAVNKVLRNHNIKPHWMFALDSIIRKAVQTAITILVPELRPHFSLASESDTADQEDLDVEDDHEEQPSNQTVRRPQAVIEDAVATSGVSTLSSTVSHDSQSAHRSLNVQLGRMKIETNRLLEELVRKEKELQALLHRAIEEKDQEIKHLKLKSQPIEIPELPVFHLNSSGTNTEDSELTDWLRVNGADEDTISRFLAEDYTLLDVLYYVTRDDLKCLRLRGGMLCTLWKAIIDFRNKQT

[4] = target: T2, Interleukin-1 receptor-associated kinase 3 (Homo sapiens, UniProt Q9Y616)
T2 sequence (Q9Y616 whole entry): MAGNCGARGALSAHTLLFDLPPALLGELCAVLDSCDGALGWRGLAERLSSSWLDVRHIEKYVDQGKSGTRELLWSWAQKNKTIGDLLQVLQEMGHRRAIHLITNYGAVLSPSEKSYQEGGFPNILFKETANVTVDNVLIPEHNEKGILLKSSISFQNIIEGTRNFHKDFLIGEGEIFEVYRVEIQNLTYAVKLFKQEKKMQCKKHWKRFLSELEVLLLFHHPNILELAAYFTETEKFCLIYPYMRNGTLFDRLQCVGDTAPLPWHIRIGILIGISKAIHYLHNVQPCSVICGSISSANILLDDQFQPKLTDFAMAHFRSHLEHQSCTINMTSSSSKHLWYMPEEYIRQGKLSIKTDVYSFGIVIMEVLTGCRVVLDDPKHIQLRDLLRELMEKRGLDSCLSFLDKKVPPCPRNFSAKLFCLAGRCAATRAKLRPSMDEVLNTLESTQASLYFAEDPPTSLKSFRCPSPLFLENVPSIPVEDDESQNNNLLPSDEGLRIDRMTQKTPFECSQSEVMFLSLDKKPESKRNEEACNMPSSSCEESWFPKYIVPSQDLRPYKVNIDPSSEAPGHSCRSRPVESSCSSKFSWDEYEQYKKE

[5] = target: Tyrosine-protein kinase Fyn (Homo sapiens, UniProt P06241)
Tyrosine-protein kinase Fyn, sequence (P06241 whole entry): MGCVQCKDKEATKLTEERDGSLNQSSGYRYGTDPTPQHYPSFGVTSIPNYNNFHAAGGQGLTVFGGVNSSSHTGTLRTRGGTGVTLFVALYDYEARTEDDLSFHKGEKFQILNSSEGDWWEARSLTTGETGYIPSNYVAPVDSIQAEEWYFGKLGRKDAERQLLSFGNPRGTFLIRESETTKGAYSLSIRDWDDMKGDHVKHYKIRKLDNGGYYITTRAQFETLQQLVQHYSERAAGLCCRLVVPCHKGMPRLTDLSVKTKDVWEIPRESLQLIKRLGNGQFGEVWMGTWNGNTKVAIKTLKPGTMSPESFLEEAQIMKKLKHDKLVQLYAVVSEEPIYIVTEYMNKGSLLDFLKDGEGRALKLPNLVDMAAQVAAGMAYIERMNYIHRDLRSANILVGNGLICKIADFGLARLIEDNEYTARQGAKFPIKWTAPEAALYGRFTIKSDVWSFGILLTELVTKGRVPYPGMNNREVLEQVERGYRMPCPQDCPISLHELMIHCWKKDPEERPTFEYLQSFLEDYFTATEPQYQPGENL
Also: in the data inactive means no Kd found up to 30 µM.

Atypical kinase COQ8A, mitochondrial, sequence (Q8NI60 whole entry): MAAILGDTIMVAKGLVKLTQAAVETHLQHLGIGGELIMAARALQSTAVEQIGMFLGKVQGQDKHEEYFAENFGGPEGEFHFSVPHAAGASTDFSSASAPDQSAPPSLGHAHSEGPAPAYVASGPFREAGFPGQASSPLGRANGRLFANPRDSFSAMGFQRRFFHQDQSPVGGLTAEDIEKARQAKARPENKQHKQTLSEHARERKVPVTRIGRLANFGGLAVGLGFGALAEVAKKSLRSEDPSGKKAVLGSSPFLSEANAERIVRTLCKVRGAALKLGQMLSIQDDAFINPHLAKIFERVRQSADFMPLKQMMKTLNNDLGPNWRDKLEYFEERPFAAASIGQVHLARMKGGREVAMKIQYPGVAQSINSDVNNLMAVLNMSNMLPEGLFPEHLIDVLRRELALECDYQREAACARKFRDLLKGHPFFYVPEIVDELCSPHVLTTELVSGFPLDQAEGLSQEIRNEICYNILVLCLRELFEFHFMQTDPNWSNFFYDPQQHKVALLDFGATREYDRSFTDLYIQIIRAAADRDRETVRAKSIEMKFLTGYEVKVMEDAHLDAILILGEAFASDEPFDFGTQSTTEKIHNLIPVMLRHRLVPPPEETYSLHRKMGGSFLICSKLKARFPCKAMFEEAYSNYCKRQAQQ

Row | Kd [1] | Kd [2] | Kd [3] | Kd [4] | Kd [5] | SMILES
1 | > 30 µM (inactive) | > 30 µM (inactive) | > 30 µM (inactive) | > 30 µM (inactive) | > 30 µM (inactive) | C[C@@H](Oc1cc(C(=O)Nc2ccc(C(=O)N3CCN(C)CC3)cc2)nnc1N)c1c(Cl)ccc(F)c1Cl
2 | > 30 µM (inactive) | > 30 µM (inactive) | > 30 µM (inactive) | > 30 µM (inactive) | > 30 µM (inactive) | C[C@H]1CNCCCN1S(=O)(=O)c1cccc2cncc(F)c12
3 | > 30 µM (inactive) | 1.48 µM (active) | > 30 µM (inactive) | > 30 µM (inactive) | 0.187 µM (active) | CCNC(=O)C#Cc1ccc2c(c1)NC(=O)/C2=C(\Nc1ccc(CN(C)C)cc1)c1ccccc1
4 | > 30 µM (inactive) | > 30 µM (inactive) | > 30 µM (inactive) | > 30 µM (inactive) | 0.005 µM | C=CC(=O)N1CCC[C@H](n2c(=O)n(-c3ccc(Oc4ccccc4)cc3)c3c(N)ncnc32)C1
5 | > 30 µM (inactive) | > 30 µM (inactive) | > 30 µM (inactive) | > 30 µM (inactive) | > 30 µM (inactive) | Cc1nc2cc(-c3nn(C(C)C)c4ncnc(N)c34)ccc2o1
6 | > 30 µM (inactive) | > 30 µM (inactive) | > 30 µM (inactive) | > 30 µM (inactive) | > 30 µM (inactive) | COCc1c(-c2ccc(NC(=O)Nc3cc(C(F)(F)F)ccc3F)c(F)c2)c2c(N)ncnn2c1CN1CCOCC1
7 | 0.835 µM (active) | > 30 µM (inactive) | > 30 µM (inactive) | > 30 µM (inactive) | > 30 µM (inactive) | Nc1ncnc2c1c(-c1cccc(OCc3ccccc3)c1)cn2[C@H]1C[C@@H](CN2CCC2)C1 [AEW-541]
8 | > 30 µM (inactive) |  | > 30 µM (inactive) | > 30 µM (inactive) |  | COc1cc(Nc2ncc3c(n2)-c2ccc(Cl)cc2C(c2c(F)cccc2OC)=NC3)ccc1C(=O)O [ALISERTIB]
9 | > 30 µM (inactive) | > 30 µM (inactive) | > 30 µM (inactive) | > 30 µM (inactive) | > 30 µM (inactive) | Cc1nc(NC(=O)N2CCC[C@H]2C(N)=O)sc1-c1ccnc(C(C)(C)C(F)(F)F)c1 [ALPELISIB]
10 | > 30 µM (inactive) | > 30 µM (inactive) | 2.79 µM (active) | > 30 µM (inactive) | > 30 µM (inactive) | Cc1csc(-c2nnc(Nc3ccc(Oc4ncccc4-c4ccnc(N)n4)cc3)c3ccccc23)c1 [AMG-900]
11 | > 30 µM (inactive) | 1.08 µM (active) |  | > 30 µM (inactive) |  | O=C(Nc1c[nH]nc1-c1nc2cc(CN3CCOCC3)ccc2[nH]1)NC1CC1 [AT-9283]
12 | > 30 µM (inactive) | > 30 µM (inactive) | > 30 µM (inactive) | > 30 µM (inactive) | > 30 µM (inactive) | C=CC(=O)Nc1cc2c(Nc3ccc(F)c(Cl)c3)ncnc2cc1C#CC(C)(C)N1CCN(C)CC1 [AV-412 FREE BASE]
13 | > 30 µM (inactive) | > 30 µM (inactive) | > 30 µM (inactive) | > 30 µM (inactive) | > 30 µM (inactive) | Cc1cc(C(=O)NOCCO)c(Nc2ccc(I)cc2F)n(C)c1=O [AZD-8330]
14 | > 30 µM (inactive) | > 30 µM (inactive) | > 30 µM (inactive) | > 30 µM (inactive) | > 30 µM (inactive) | Cn1cnc2c(F)c(Nc3ccc(Br)cc3F)c(C(=O)NOCCO)cc21 [BINIMETINIB]
15 | > 30 µM (inactive) | > 30 µM (inactive) | > 30 µM (inactive) | > 30 µM (inactive) | > 30 µM (inactive) | CCn1c(C(=O)N(C2CC2)C2CC2)cc2c3c(ncn3C)c(Nc3cc(C)n(C)n3)nc21 [BMS-911543]
16 | > 30 µM (inactive) | 0.03 µM (active) | > 30 µM (inactive) | > 30 µM (inactive) | > 30 µM (inactive) | COc1cc2ncnc(Oc3cccc(NC(=O)Nc4cc(C(C)(C)C(F)(F)F)on4)c3)c2cc1OC [CEP-32496]
17 | > 30 µM (inactive) | > 30 µM (inactive) | > 30 µM (inactive) | > 30 µM (inactive) | > 30 µM (inactive) | Cc1cc(Nc2ncc(Cl)c(Nc3ccccc3S(=O)(=O)C(C)C)n2)c(OC(C)C)cc1C1CCNCC1 [CERITINIB]
18 | > 30 µM (inactive) | > 30 µM (inactive) | > 30 µM (inactive) | > 30 µM (inactive) | > 30 µM (inactive) | COc1c(OCCCN2CCOCC2)ccc2c1N=C(NC(=O)c1cnc(N)nc1)N1CCN=C21 [COPANLISIB]
19 | > 30 µM (inactive) | > 30 µM (inactive) |  | > 30 µM (inactive) | > 30 µM (inactive) | CCS(=O)(=O)N1CCN(c2ccc(Nc3ncc(C(N)=O)c(NC4CC4)n3)cc2)CC1 [Cerdulatinib Hydrochloride]
20 | > 30 µM (inactive) | > 30 µM (inactive) | > 30 µM (inactive) | > 30 µM (inactive) |  | Cc1[nH]c(/C=C2\C(=O)Nc3ccccc32)c(C)c1CCC(=O)O [ORANTINIB]
21 | 3.05 µM | > 30 µM (inactive) | > 30 µM (inactive) | > 30 µM (inactive) |  | NC(=O)c1c(OCc2c(F)cc(Br)cc2F)nsc1NC(=O)NCCCCN1CCCC1 [OSI-632]
22 | > 30 µM (inactive) | > 30 µM (inactive) |  | > 30 µM (inactive) |  | CC(=O)NCC(=O)N1[C@@H]2CC[C@H]1c1ccc(Nc3ncc(C(F)(F)F)c(NC4CCC4)n3)cc12 [PF-03814735]

Row | SMILES | Kd [1] | Kd [2] | Kd [3] | Kd [4] | Kd [5]
23 | CC(=O)c1cnc2ccc(-c3cc(Cl)c(O)c(Cl)c3)nc2c1N[C@H]1CC[C@H](CN(C)C)CC1 | > 30 µM (inactive) |  | 0.878 µM (active) | 0.012 µM (active) | 0.125 µM (active)
24 | COc1cc([C@@H]2c3cc4c(cc3[C@H](O)[C@H]3COC(=O)[C@@H]23)OCO4)cc(OC)c1OC [AXL-1717] | > 30 µM (inactive) | > 30 µM (inactive) | > 30 µM (inactive) | > 30 µM (inactive) | > 30 µM (inactive)
25 | NC(=O)Nc1cc(-c2cccc(F)c2)sc1C(=O)N[C@H]1CCCNC1 [AZD-7762] | > 30 µM (inactive) | 0.899 µM (active) | > 30 µM (inactive) | > 30 µM (inactive) | 0.284 µM (active)
26 | CC(C)(C)c1nc(-c2cccc(NS(=O)(=O)c3c(F)cccc3F)c2F)c(-c2ccnc(N)n2)s1 [DABRAFENIB] | > 30 µM (inactive) | 0.305 µM (active) |  | > 30 µM (inactive) | 
27 | CCOc1cc2ncc(C#N)c(Nc3ccc(F)c(Cl)c3)c2cc1NC(=O)/C=C/CN(C)C [PELITINIB] | > 30 µM (inactive) |  | > 30 µM (inactive) | > 30 µM (inactive) | 
28 | CNC(=O)c1cc(Oc2ccc(NC(=O)Nc3cc(C(C)(C)C)nn3-c3ccc4ncccc4c3)c(F)c2)ccn1 [REBASTINIB] | > 30 µM (inactive) | 0.135 µM (active) | > 30 µM (inactive) | > 30 µM (inactive) | 
29 | CN1CCN(CCOc2cc(OC3CCOCC3)c3c(Nc4c(Cl)ccc5c4OCO5)ncnc3c2)CC1 [SARACATINIB] | 0.275 µM (active) |  | > 30 µM (inactive) | > 30 µM (inactive) | 
